From patent US20100086518A1, “TREATMENT OF MELANOMA” (NOVARTIS AG, priority 2007, published 2010) come the findings set out here.

Like-named read-outs stand apart in the source and are kept apart here.

For data set [1], the system named is melanoma tumor cells MEXF 462/6. Put plainly: cells. As to conditions: Homo sapiens.
Data set [2] relates to melanoma tumor cells MEXF 276/7. In words: cells. The note with it: Homo sapiens.
Data set [3] deals with bFGF-driven neovascularization. In words: In vivo FGF-mediated matrigel angiogenesis assay. As to conditions: daily for 8 days.
In data set [4] the test system is melanoma tumor cells MEXF 989/7. Put plainly: cells. As to conditions: Homo sapiens.
The subject of data set [5] is melanoma tumor cells MEXF 1341/3. Put plainly: cells. The note with it: Homo sapiens.
Data set [6] relates to other kinases in the PI3K/Akt and MAPK(K) pathways. The note with it: read-out: IC50 other kinases in the PI3K/Akt and MAPK(K) pathways; negligible activity.
The subject of data set [7] is melanoma tumor cells MEXF 514/12. In words: cells. The note with it: Homo sapiens.
For data set [8], the system named is melanoma tumor cells MEXF 672/3. In words: cells. The note with it: Homo sapiens.
Data set [9] relates to human melanoma CHL-1 (wild type B-Raf) xenograft. Type of data set: in vivo. As to conditions: day 25. As for the experimental part:
Animals. […] . Mice were implanted with subcutaneous ID chips upon arrival and then underwent at least 7 days of acclimatization prior to the study start. All animal studies were conducted in a facility accredited by the Association for Assessment and Accreditation of Laboratory Animal Care International and in accordance with all guidelines of the Institutional Animal Care and Use Committee and the Guide for The Care and Use of Laboratory Animals (National Research Council).
Cell culture for in vivo efficacy studies. […] The human melanoma cell line CHL-1 was cultured for 6 passages in DMEM media with low glutamine+10% FBS at 37° C. in a humidified atmosphere with 5% CO2.
The day of tumor cell implantation, tumor cells were harvested and resuspended in HBSS (A375 cells) or 50% HBSS+plus 50% Matrigel (CHL-1 cells; Becton Dickenson and Company, Franklin Lakes, N.J.) at 2.5×10^7 cells/mL. Cells were inoculated subcutaneously in the right flank at 5×10^6 cells/200 uL/mouse.
. The group sizes were 9 animals per group (A375 study) or 10 animals per group (CHL-1 study). […] . […] . […] Comparisons of the mean tumor volume in the treatment vs. the vehicle group were evaluated using a Student's two tailed t-test (Excel software).

In data set [10] the test system is BRaf WT CHL-1 melanoma tumors.
The test system of data set [11] is melanoma-inhibitory activity (MIA) protein. Put plainly: Plasma MIA levels in the CHL-1 study. Type of data set: in vivo, Nu/Nu mice. The note with it: 30 mg/kg and 80 mg/kg groups. On the procedure:
MIA ELISA Assay: Equal numbers of human melanoma and colorectal carcinoma cells (˜250,000 cells for each cell line) were seeded onto tissue culture plates and the culture medium for each cell line was collected 48 hr later. Levels of MIA in culture media or plasma were measured by a commercial single-step ELISA kit according to the manufacturer's protocol (Roche Diagnostics Corporation, Indianapolis, Ind.). MIA concentrations in test samples were calculated using a standard curve ranging from 3-37 ng/mL. When the MIA concentration exceeded the highest standard concentration, the samples were diluted 1:5 and assayed again to have the results fall within the linear range of the standard curve. Data were evaluated using the Student t-test (two-tailed distribution, two-sample unequal variance), using P≦0.05 as the level of significance.
In the CHL-1 study, plasma levels of the melanoma marker melanoma-inhibitory activity (MIA) protein secreted by melanoma cells were also measured.

Data set [12] has as its system melanoma tumor cells MEXF 1765/3. In words: cells. As to conditions: Homo sapiens.
The target in data set [13] is T1, VEGFR2/Flk1 (UniProt P35968).
T1 construct: other: purified enzyme
In words: VEGFR2 kinase assay (purified enzyme). The data set is classed as biochemical. As to conditions: read-out: IC50 VEGFR flk1.

The mark [14] stands for this setting: Cmpd 1 30 mg/kg qd, carboplatin 50 mg/kg + paclitaxel 25 mg/kg 1x/wk.

For `CN1CCN(c2ccc3nc(-c4c(N)c5c(F)cccc5[nH]c4=O)[nH]c3c2)CC1` [Compound 1, 4-amino-5-fluoro-3-[6-(4-methylpiperazin-1-yl)-1H-benzimidazol-2-yl]-1H-quinolin-2-one], the IC50 is 700 nM in data set [1] (read-out: IC50 clonogenic, MEXF 462/6); 1140 nM in data set [2] (read-out: IC50 clonogenic, MEXF 276/7); 2540 nM in data set [4] (MEXF 989, read-out: IC50 clonogenic, MEXF 989/7); 2240 nM in data set [5] (read-out: IC50 clonogenic, MEXF 1341/3); more than 10000 nM in data set [6]; 1050 nM in data set [7] (MEXF514, read-out: IC50 clonogenic, MEXF 514/12). Moreover, the IC50 amounted to 1670 nM in [8] (read-out: IC50 clonogenic, MEXF 672/3) and 2580 nM in data set [12] (read-out: IC50 clonogenic, MEXF 1765/3). Moreover, the EC50 was 700 nM in [1] (read-out: relative EC50 soft agar clonogenic, 462/6); 1140 nM in [2] (read-out: relative EC50 soft agar clonogenic, 276/7); 2540 nM in data set [4] (MEXF 989, read-out: relative EC50 soft agar clonogenic, 989/7); 2240 nM in data set [5] (read-out: relative EC50 soft agar clonogenic, 1341/3); 1050 nM in [7] (MEXF514, read-out: relative EC50 soft agar clonogenic, 514/12); 1670 nM in data set [8] (read-out: relative EC50 soft agar clonogenic, 672/3). In addition, the EC50 in data set [12] (read-out: relative EC50 soft agar clonogenic, 1765/3) was 2580 nM. For the same molecule, the “hemoglobin level in Matrigel plugs versus unsupplemented Matrigel” value in data set [3] (all doses >10 mg/kg) is reported as “less than the basal hemoglobin level”. Further, the “IC50 of inhibition of bFGF-driven neovascularization” value in data set [3] (oral, 3-100 mg/kg, hemoglobin in Matrigel plugs) came to 3 mg/kg. The “tumor growth inhibition (TGI)” value in data set [9] (10 mpk p.o. daily) came out at 64%; in data set [9] (30 mpk p.o. daily) it was 73%; in data set [9] (60 mpk p.o. daily) it was 89%; in [9] (80 mpk p.o. daily), 87%. In data set [10] (BAR = bright, alert, responsive, BWL = body weight loss), the “Clinical Observations” value is recorded as “BAR”. The “% Mean change in BW of initial” value in [10] (setting [14]) was 4.3%. In addition, the “Max % TGI; day 14” value in [10] (setting [14]) worked out at 52.51%. Further, in [10] (Cmpd 1 30 mg/kg qd, carboplatin 50 mg/kg + paclitaxel 25 mg/kg 1x/wk, tumor volume in mm^3), the “Mean of Tv on day 14” value was 884. Also, the “T/C Observed (O)” value in data set [10] (day 14) was 0.56. The “plasma MIA levels” value in data set [11] (day 8, vehicle […]) is “undetectable”; in data set [11] (day 22), “undetectable”.

Take `Nc1c(-c2nc3ccc(N4CCNCC4)cc3[nH]2)c(=O)[nH]c2cccc(F)c12` [Compound 3, 4-Amino-5-fluoro-3-(6-piperazin-1-yl-1H-benzimidazol-2-yl)quinolin-2(1H)-one]: the IC50 in data set [13] amounted to […].
